Experimental findings from PubChem BioAssay (NCI) are described below.

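Growth conditions: 96-well plates. Treatment: test compound, 48 hours, 5 concentrations. Analysis: linear interpolation between bracketing concentrations; unreached endpoints set to highest concentration. Definition used: TGI = concentration required for complete inhibition of growth.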

Among the test systems are ACHN renal; BT-549 breast; CCRF-CEM leukemia; MALME-3M melanoma; NCI-H226 lung; NCI-H460 lung; OVCAR-3 ovarian; OVCAR-5 ovarian; SNB-19 CNS; U251 CNS.
Common to all, as to test: growth of human tumour cells (NCI), 48 h

Turning to `N#CC(C#N)=Cc1c(O)ccc2ccccc12`, the TGI in the assay on ACHN renal was 23.9 µM; in the assay on BT-549 breast, 32.1 µM; in the assay with CCRF-CEM leukemia, 5.17 µM; in the assay with MALME-3M melanoma, 39.8 µM; in the assay with NCI-H226 lung, 50 µM; in the assay with NCI-H460 lung, 36.7 µM. In addition, the TGI in the assay with OVCAR-3 ovarian is 27.4 µM; in the assay with OVCAR-5 ovarian it was 31.7 µM; in the assay with SNB-19 CNS it was 30.5 µM; in the assay with U251 CNS, 32.5 µM.

Regarding `COC(=O)c1ccccc1C#CCCCOS(C)(=O)=O`, the TGI with ACHN renal, in the assay on BT-549 breast, with CCRF-CEM leukemia, in the assay on MALME-3M melanoma, in the assay on NCI-H226 lung and in the assay with NCI-H460 lung was greater than 10 µM throughout. In addition, the TGI in the assay with OVCAR-3 ovarian, in the assay on OVCAR-5 ovarian, in the assay with SNB-19 CNS and in the assay on U251 CNS was greater than 10 µM each time.

As for `COc1ccc(C(=C(I)c2ccccc2)c2ccc(OC)cc2)cc1`, the TGI in the assay on ACHN renal, in the assay with BT-549 breast, in the assay on CCRF-CEM leukemia, with MALME-3M melanoma, with NCI-H226 lung and in the assay with NCI-H460 lung was greater than 100 µM each time. The TGI in the assay on OVCAR-3 ovarian, in the assay with OVCAR-5 ovarian, with SNB-19 CNS and in the assay with U251 CNS was greater than 100 µM in each case.

As to `O=c1[nH]c2cc3cccnc3c(Cl)c2nc1C(F)(F)F`, the TGI in the assay on ACHN renal is greater than 100 µM; in the assay with BT-549 breast it was 86.7 µM; in the assay with CCRF-CEM leukemia, 98.2 µM; in the assay with MALME-3M melanoma, greater than 100 µM; in the assay with NCI-H226 lung, greater than 100 µM; with NCI-H460 lung, greater than 100 µM. Moreover, the TGI in the assay with OVCAR-3 ovarian, in the assay on OVCAR-5 ovarian, in the assay on SNB-19 CNS and in the assay on U251 CNS was greater than 100 µM throughout.
